From US5378846A, “1,2,3,4-tetrahydropyrrolo-[1,2-a]-pyrazine derivatives” (Russian-American Institute For New Drug Development, priority 1993, dated 1995)
Entries after “also recorded” stand apart in the source; their conditions may differ. Where two headings read alike, the source gives them in different places.

What was measured:
[1] = tested on: rat behavior in Vogel conflict test; assay: Vogel conflict test (anxiolytic activity, punished responses in water-deprived rats); assay type: in vivo, outbred male albino rats
Description: Compounds according to the present invention were checked for their anxiolytic activity. Behaviour suppressed by punishment is a very reliable indicator of the anxiolytic activity of drugs. A variant of the conflict situation test was used to reveal anxiety in water-deprived rats whose licking was suppressed by shock (see Vogel et al., Phychopharmacologia, 21, 1-7 (1971); J. E. Barrett in Animal Models in Psychopharmacology, Advances in Pharmacological Sciences, 1991; and Birkhauser Verlag, Basel, p. 37.52, Molodavkin et al., Exper. Clin. Pharmacol., 56, (1993), which are incorporated herein by reference).
The experiments were carried out using outbred male albino rats (180-220 g). This experiment involved previous training of water-deprived rats to drink water from a trough. Next day electrical stimulation was given delivering 0.5 mA electric shocks through the trough and metal grid floor of the experimental chamber. A conflict situation was created by clashing motivations (survival and self defense). The degree of anxiolytic activity was estimated by the measurement of the amount of punished licks for 10 min. Each compound was administered intraperitoneally 45 min. before the conflict test.

[2] = Acute toxicity in mice; conditions: mouse, in vivo, ip, mice, i.p.
Protocol: (§1) Compounds according to the present invention were checked for their influence on gross behaviour. The experiments described herein (Examples 11, 12, 13, 14, and 15) were carried out using outbred male mice weighing approximately 18-24 g. Each substance was administered intraperitoneally 45 min. before the experiment. Locomotor activity was estimated individually for each animal for 3 min. using an actometer `Era-1` (Russia).
(§2) The compounds of the present invention were checked for acute toxicity in outbred male mice (18-22 g.). They were administered intraperitoneally and the lethality was estimated 24 hours later (Table 6). In the dose range of 500-1000 mg/kg i.p. Compound 1 caused death in 50% of the animals. Compound 1 is almost 5 times less toxic than other compounds.

[3] = tested on: outbred male mice; assay: Acute toxicity in mice; conditions: mouse, in vivo, ip
Protocol: as §1, §2

[4] = tested on: convulsive effect of pentylenetetrazole in mice; assay: Convulsive effect of pentylenetetrazole; assay type: in vivo, outbred male mice
Protocol: as §1
The influence of Compound 1 on the latency of convulsions and on the duration of animals' lives after pentylenetetrazole (130 mg/kg subcutaneously) was studied in outbred mice.

[5] = 10 mg/kg + pentylenetetrazole 130 mg/kg s.c.

O=C(O)CCC(=O)O.c1cc2n(c1)CCNC2 [Compound 1, 1,2,3,4-tetrahydropyrrolo-[1,2-a]-pyrazine hydrosuccinate]
Anxiolytic effectiveness after chronic administration, in words ([1]; 5 mg/kg i.p. once daily for 40 days): anxiolytic effectiveness of Compound 1 is preserved after its chronic administration | The number of punished responses ([1]; rat, 2.0 mg/kg i.p., 45 min before test, Table 1): 43.52 ± 14.8 | The number of punished responses ([1]; rat, acute administration, 5 mg/kg, Table 3): 49.52 ± 15.91 | The number of punished responses ([1]; rat, chronic administration, 5 mg/kg i.p. once daily for 40 days, Table 3): 85.8 ± 6.7 | The number of punished responses ([1]; rat, i.p., dose 0.5 mg/kg, Table 2): 49.88 ± 19.27 | The number of punished responses ([1]; rat, i.p., dose 1.0 mg/kg, Table 2): 41.29 ± 16.71 | The number of punished responses ([1]; rat, i.p., dose 2.0 mg/kg, Table 2): 43.52 ± 14.8 | The number of punished responses ([1]; rat, i.p., dose 5.0 mg/kg, Table 2): 29.88 ± 13.13 | The number of punished responses ([1]; rat, i.p., dose 10.0 mg/kg, Table 2): 30.88 ± 10.93 | Anxiolytic effect in Vogel conflict test, in words ([1]; rat, i.p., Compound 1 vs diazepam: 0.5-2 mg/kg vs 1 and 2 mg/kg): increase the amount of punished responses in a Vogel conflict test after acute and chronic administration; also recorded: displayed more anxiolytic effect than diazepam | LD50 at 24 h ([2]; 24 hours, read-out: Dose range causing death in 50% of the animals): 500 to 1000 mg/kg | LD50 at 24 h ([2]; lethality 24 hours later, Table 6 (range in brackets beside), read-out: LD50): 1540 mg/kg | Times less toxic than other compounds [3]: ~5 times | Duration of animal survival [4, 5]: 7.3 ± 1.0 min | Latency of clon. [4, 5]: 3.35 ± 0.7 min | Latency of ton. [4, 5]: 7.06 ± 1.0 min | Effect on latency of convulsions and animal survival after pentylenetetrazole, in words ([4]; pentylenetetrazole 130 mg/kg subcutaneously): increase the duration of animals' survival after pentylenetetrazole injection; also recorded: causes prolongation of the latency of convulsions and of animal survival after pentylenetetrazole
